Measurements from US10968172B2, “USP30 inhibitors” (Mitobridge, Inc., priority 2017, dated 2021).
pIC50: −log10 of the molar value.

Molecular target: USP30 (Homo sapiens (Human), UniProt Q70CQ3)
Test: In vitro biochemical assay for USP30 enzyme (Ubiquitin-Rhodamine110 cleavage, fluorescence)
Conditions: 20 nM USP30, 15 min pre-incubation, 100 nM Ub rhodamine substrate, 2 hrs at room temperature
Protocol: In vitro biochemical assay for USP30 enzyme
The in vitro assay for USP30 evaluates the ability of a test compound to inhibit the activity of the enzyme to cleave ubiquitin from a substrate. Ubiquitin-rhodamine 110 is a quenched, fluorescent substrate for USP30. Cleavage of the amide bond between the C-terminal glycine of ubiquitin and rhodamine results in an increase in rhodamine fluorescence at 535 nm (Exc. 485 nm).
Incubation of the substrate in the presence or absence of USP30 was compared to confirm the deubiquitylating activity of USP30. The USP30 enzyme assay was performed by pre-incubating 20 nM of USP30 with varying concentration of a test compound in the assay buffer [PBS (pH 7.4), 1 mM DTT, 0.01% Tween 20, 0.01% BSA, DMSO final concentration is 1%] for 15 mins at room temperature, following which 100 nM of substrate Ub rhodamine was added and incubated at room temperature for 2 hrs and the plate was read for fluorescence intensity at Ex. 485 nm/535 nm in VICTOR X5 plate reader. The percent inhibition of activity of the enzyme is calculated by comparing counts in the presence and absence of compounds.
Test compounds were screened at various concentrations (10-12 tested concentrations) and dose response curves were generated was generated using GraphPad Prism software Version 7 (San Diego, Calif., USA) with non-linear regression curve fit for sigmoidal dose response (variable slope).

USP30, sequence (Q70CQ3 whole entry): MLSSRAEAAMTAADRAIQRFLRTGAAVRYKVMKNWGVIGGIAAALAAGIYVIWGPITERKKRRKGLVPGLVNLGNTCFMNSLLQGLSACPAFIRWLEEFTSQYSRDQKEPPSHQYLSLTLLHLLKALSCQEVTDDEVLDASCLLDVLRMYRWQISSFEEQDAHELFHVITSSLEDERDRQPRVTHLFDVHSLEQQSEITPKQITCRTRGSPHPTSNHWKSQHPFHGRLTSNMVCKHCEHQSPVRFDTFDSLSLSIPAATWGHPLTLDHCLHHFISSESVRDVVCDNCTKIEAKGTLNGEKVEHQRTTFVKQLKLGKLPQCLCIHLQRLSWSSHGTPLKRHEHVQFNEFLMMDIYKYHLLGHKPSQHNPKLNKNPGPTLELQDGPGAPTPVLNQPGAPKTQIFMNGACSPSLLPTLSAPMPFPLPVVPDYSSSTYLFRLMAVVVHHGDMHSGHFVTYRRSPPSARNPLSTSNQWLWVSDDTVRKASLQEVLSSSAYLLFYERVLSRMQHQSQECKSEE

Compound | pIC50
CC(C)(C)NS(=O)(=O)c1cccc2c(NC(=O)[C@@H](Cc3ccccc3)NC(=O)c3ccccc3)cccc12 [Compound 4a, (R)-N-(1-((5-(N-(tert-butyl)sulfamoyl)naphthalen-1-yl)amino)-1-oxo-3-phenylpropan-2-yl)benzamide] | 6.61
CC(C)(C)NS(=O)(=O)c1cccc2c(NC(=O)[C@H](Cc3ccccc3)NC(=O)c3ccccc3)cccc12 [Compound 4b, (S)—N-(1-((5-(N-(tert-butyl)sulfamoyl)naphthalen-1-yl)amino)-1-oxo-3-phenylpropan-2-yl)benzamide] | 6.56
CC(C)(C)NS(=O)(=O)c1cccc2c(NC(=O)[C@H](Cc3ccccc3)NC(=O)C3CCCCC3)cccc12 [Compound 4c, (S)-N-(1-((5-(N-(tert-butyl)sulfamoyl)naphthalen-1-yl)amino)-1-oxo-3-phenylpropan-2-yl)cyclohexanecarboxamide] | 6.90
CC(C)(C)NS(=O)(=O)c1cccc2c(NC(=O)[C@H](Cc3ccccc3)NC(=O)C3CC3)cccc12 [Compound 4d, (S)-N-(1-((5-(N-(tert-butyl)sulfamoyl)naphthalen-1-yl)amino)-1-oxo-3-phenylpropan-2-yl)cyclopropanecarboxamide] | < 5.00
CC(C)(C)NS(=O)(=O)c1cccc2c(NC(=O)[C@H](Cc3ccccc3)NC(=O)Cc3ccccc3)cccc12 [Compound 4e, (S)-N-(5-(N-(tert-butyl)sulfamoyl)naphthalen-1-yl)-3-phenyl-2-(2-phenylacetamido)propanamide] | < 5.00
CC(C)(C)NS(=O)(=O)c1cccc2c(NC(=O)[C@H](Cc3ccccc3)NC(=O)CCc3ccccc3)cccc12 [Compound 4f, (S)-N-(5-(N-(tert-butyl)sulfamoyl)naphthalen-1-yl)-3-phenyl-2-(3-phenylpropanamido)propanamide] | < 5.00
CC(C)(C)NS(=O)(=O)c1cccc2c(NC(=O)[C@H](Cc3ccccc3)NC(=O)c3cccs3)cccc12 [Compound 4h, (S)-N-(1-((5-(N-(tert-butyl)sulfamoyl)naphthalen-1-yl)amino)-1-oxo-3-phenylpropan-2-yl)thiophene-2-carboxamide] | 5.74
Cc1ccc(C(=O)N[C@@H](Cc2ccccc2)C(=O)Nc2cccc3c(S(=O)(=O)NC(C)(C)C)cccc23)cc1 [Compound 4i, (S)-N-(1-((5-(N-(tert-butyl)sulfamoyl)naphthalen-1-yl)amino)-1-oxo-3-phenylpropan-2-yl)-4-methylbenzamide] | 5.60
CC(C)(C)NS(=O)(=O)c1cccc2c(NC(=O)[C@H](Cc3ccccc3)NC(=O)c3ccc(F)cc3)cccc12 [Compound 4j, (S)-N-(1-((5-(N-(tert-butyl)sulfamoyl)naphthalen-1-yl)amino)-1-oxo-3-phenylpropan-2-yl)-4-fluorobenzamide] | 7.31
CC(C)(C)NS(=O)(=O)c1cccc2c(NC(=O)[C@H](Cc3ccccc3)NC(=O)C3CCOCC3)cccc12 [Compound 4k, (S)-N-(1-((5-(N-(tert-butyl)sulfamoyl)naphthalen-1-yl)amino)-1-oxo-3-phenylpropan-2-yl)tetrahydro-2H-pyran-4-carboxamide] | < 5.00
CC(C)(C)NS(=O)(=O)c1cccc2c(NC(=O)[C@H](Cc3ccccc3)NC(=O)C3CCCC3)cccc12 [Compound 4l, (S)-N-(1-((5-(N-(tert-butyl)sulfamoyl)naphthalen-1-yl)amino)-1-oxo-3-phenylpropan-2-yl)cyclopentanecarboxamide] | 6.44
Cc1cccc(C(=O)N[C@@H](Cc2ccccc2)C(=O)Nc2cccc3c(S(=O)(=O)NC(C)(C)C)cccc23)n1 [Compound 4m, (S)-N-(1-((5-(N-(tert-butyl)sulfamoyl)naphthalen-1-yl)amino)-1-oxo-3-phenylpropan-2-yl)-6-methylpicolinamide] | < 5.00
CC(C)(C)NS(=O)(=O)c1cccc2c(NC(=O)[C@H](Cc3ccccc3)NC(=O)C3CCC(F)(F)CC3)cccc12 [Compound 4n, (S)—N-(1-((5-(N-(tert-butyl)sulfamoyl)naphthalen-1-yl)amino)-1-oxo-3-phenylpropan-2-yl)-4,4-difluorocyclohexane-1-carboxamide] | 7.01
CC(C)(C)NS(=O)(=O)c1cccc2c(NC(=O)[C@H](Cc3ccccc3)NC(=O)c3ncccn3)cccc12 [Compound 4o, (S)-N-(1-((5-(N-(tert-butyl)sulfamoyl)naphthalen-1-yl)amino)-1-oxo-3-phenylpropan-2-yl)pyrimidine-2-carboxamide] | < 5.00
CC(C)(C)NS(=O)(=O)c1cccc2c(NC(=O)[C@H](Cc3ccccc3)NC(=O)C3CCCCCC3)cccc12 [Compound 4p, (S)-N-(1-((5-(N-(tert-butyl)sulfamoyl)naphthalen-1-yl)amino)-1-oxo-3-phenylpropan-2-yl)cycloheptanecarboxamide] | 5.37
CC(C)(C)NS(=O)(=O)c1cccc2c(NC(=O)[C@H](Cc3ccccc3)NC(=O)c3nccs3)cccc12 [Compound 4q, (S)-N-(1-((5-(N-(tert-butyl)sulfamoyl)naphthalen-1-yl)amino)-1-oxo-3-phenylpropan-2-yl)thiazole-2-carboxamide] | 6.74
CC(C)(C)NS(=O)(=O)c1cccc2c(NC(=O)[C@H](Cc3ccccc3)NC(=O)c3ccc(C#N)cc3)cccc12 [Compound 4r, (S)-N-(1-((5-(N-(tert-butyl)sulfamoyl)naphthalen-1-yl)amino)-1-oxo-3-phenylpropan-2-yl)-4-cyanobenzamide] | 6.57
CC(C)(C)NS(=O)(=O)c1cccc2c(NC(=O)[C@H](Cc3ccccc3)NC(=O)C34CC5CC(CC(C5)C3)C4)cccc12 [Compound 4s] | < 5.00
CC1CCC(C(=O)N[C@@H](Cc2ccccc2)C(=O)Nc2cccc3c(S(=O)(=O)NC(C)(C)C)cccc23)CC1 (stereo partly drawn) [Compound 4t, (S)-N-(1-((5-(N-(tert-butyl)sulfamoyl)naphthalen-1-yl)amino)-1-oxo-3-phenylpropan-2-yl)-4-methylcyclohexane-1-carboxamide] | < 5.00
CC(C)(C)NS(=O)(=O)c1cccc2c(NC(=O)[C@H](Cc3ccccc3)NC(=O)C3CCCO3)cccc12 (stereo partly drawn) [Compound 4u, N-((S)-1-((5-(N-(tert-butyl)sulfamoyl)naphthalen-1-yl)amino)-1-oxo-3-phenylpropan-2-yl)tetrahydrofuran-2-carboxamide] | < 5.00
COc1ccc(C(=O)N[C@@H](Cc2ccccc2)C(=O)Nc2cccc3c(S(=O)(=O)NC(C)(C)C)cccc23)cc1 [Compound 4v, (S)-N-(1-((5-(N-(tert-butyl)sulfamoyl)naphthalen-1-yl)amino)-1-oxo-3-phenylpropan-2-yl)-4-methoxybenzamide] | 5.05
CC(C)(C)NS(=O)(=O)c1cccc2c(NC(=O)[C@H](Cc3ccccc3)NC(=O)c3ccc(O)cc3)cccc12 [Compound 4w, (S)-N-(1-((5-(N-(tert-butyl)sulfamoyl)naphthalen-1-yl)amino)-1-oxo-3-phenylpropan-2-yl)-4-hydroxybenzamide] | < 5.00
CC(C)(C)NS(=O)(=O)c1cccc2c(NC(=O)[C@H](Cc3ccccc3)NC(=O)c3ccccn3)cccc12 [Compound 4x, (S)-N-(1-((5-(N-(tert-butyl)sulfamoyl)naphthalen-1-yl)amino)-1-oxo-3-phenylpropan-2-yl)picolinamide] | 6.77
CC(C)(C)NS(=O)(=O)c1cccc2c(NC(=O)[C@H](Cc3ccccc3)NC(=O)c3ccc[nH]3)cccc12 [Compound 4y, (S)-N-(1-((5-(N-(tert-butyl)sulfamoyl)naphthalen-1-yl)amino)-1-oxo-3-phenylpropan-2-yl)-1H-pyrrole-2-carboxamide] | 5.72
CC(C)(C)NS(=O)(=O)c1cccc2c(NC(=O)[C@H](Cc3ccccc3)NC(=O)c3ccco3)cccc12 [Compound 4z, (S)-N-(1-((5-(N-(tert-butyl)sulfamoyl)naphthalen-1-yl)amino)-1-oxo-3-phenylpropan-2-yl)furan-2-carboxamide] | < 5.00
CC(C)C[C@H](NC(=O)c1ccccc1)C(=O)Nc1cccc2c(S(=O)(=O)NC(C)(C)C)cccc12 [Compound 7a, (S)-N-(1-((5-(N-(tert-butyl)sulfamoyl)naphthalen-1-yl)amino)-4-methyl-1-oxopentan-2-yl)benzamide] | 5.37
CC(C)(C)NS(=O)(=O)c1cccc2c(NC(=O)[C@H](Cc3ccc(O)cc3)NC(=O)c3ccccc3)cccc12 [Compound 7b, (S)-N-(1-((5-(N-(tert-butyl)sulfamoyl)naphthalen-1-yl)amino)-3-(4-hydroxyphenyl)-1-oxopropan-2-yl)benzamide] | 6.28
CC(C)(C)NS(=O)(=O)c1cccc2c(NC(=O)[C@H](CC3CCCCC3)NC(=O)c3ccccc3)cccc12 [Compound 7c, (S)-N-(1-((5-(N-(tert-butyl)sulfamoyl)naphthalen-1-yl)amino)-3-cyclohexyl-1-oxopropan-2-yl)benzamide] | 6.18
CC(C)(C)NS(=O)(=O)c1cccc2c(NC(=O)[C@H](Cc3ccccc3Cl)NC(=O)c3ccccc3)cccc12 [Compound 7d, (S)-N-(1-((5-(N-(tert-butyl)sulfamoyl)naphthalen-1-yl)amino)-3-(2-chlorophenyl)-1-oxopropan-2-yl)benzamide] | < 5.00
